Test results from US10280205B2, “Method for treating cancer with an activated T lymphocyte that selectively recognizes a cancer cell consisting of specific peptide” (immatics biotechnologies GmbH, priority 2015, dated 2019).

Columns and labels:
HLA-A*02:01 = HLA-A*02:01 (Homo sapiens, UniProt P04439, D140Y/D185E/D98H/E176V/E277Q/G131W/G231S/I119V/I121R/I166T/I218V/L300P/L318F/N151K/N90K/P208A/P217A/Q86G/Q94H/R138H/R169H/T345S); test: MHC binding assay: UV-ligand exchange with beta2m ELISA (exchange yield); conditions: binding to HLA-A*02:01, β2m ELISA
How it was run: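 Exchange yield reflects how much β2m remains bound, measured by ELISA: streptavidin capture of 100-fold diluted monomers, HRP anti-β2m at 37° C. for 1 h, TMB read at 450 nm. Monomers come from UV cleavage of a conditional HLA-A*02:01 ligand in the presence of the candidate peptide.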

CD8+ T cells = test: In vitro T-cell priming assay with aAPCs loaded with peptide/MHC complexes and anti-CD28, multimer staining readout (in vitro immunogenicity); assay type: cell-based, human; conditions: for Wells positive [%]: HLA-A*02 restricted peptides; for donors (positive donors, in vitro immunogenicity) / wells (positive wells, in vitro immunogenicity): HLA class I peptides; for donors (positive donors, in vitro immunogenicity): percentage of positive donors among evaluable; for wells (positive wells, in vitro immunogenicity): percentage of positive wells
Source text: In order to obtain information regarding the immunogenicity of the TUMAPs of the present invention, the inventors performed investigations using an in vitro T-cell priming assay based on repeated stimulations of CD8+ T cells with artificial antigen presenting cells (aAPCs) loaded with peptide/MHC complexes and anti-CD28 antibody.
In order to perform in vitro stimulations by artificial antigen presenting cells loaded with peptide-MHC complex (pMHC) and anti-CD28 antibody, the inventors first isolated CD8+ T cells from fresh HLA-A*02 leukapheresis products via positive selection using CD8 microbeads (Miltenyi Biotec, Bergisch-Gladbach, Germany) of healthy donors obtained from the University clinics Mannheim, Germany, after informed consent.
PBMCs and isolated CD8+ lymphocytes were incubated in T-cell medium (TCM) until use consisting of RPMI-Glutamax (Invitrogen, Karlsruhe, Germany) supplemented with 10% heat inactivated human AB serum (PAN-Biotech, Aidenbach, Germany), 100 U/ml Penicillin/100 μg/ml Streptomycin (Cambrex, Cologne, Germany), 1 mM sodium pyruvate (CC Pro, Oberdorla, Germany), 20 μg/ml Gentamycin (Cambrex). 2.5 ng/ml IL-7 (PromoCell, Heidelberg, Germany) and 10 U/ml IL-2 (Novartis Pharma, Nurnberg, Germany) were also added to the TCM at this step.
Generation of pMHC/anti-CD28 coated beads, T-cell stimulations and readout was performed in a highly defined in vitro system using four different pMHC molecules per stimulation condition and 8 different pMHC molecules per readout condition.
The purified co-stimulatory mouse IgG2a anti human CD28 Ab 9.3 (Jung et al., 1987) was chemically biotinylated using Sulfo-N-hydroxysuccinimidobiotin as recommended by the manufacturer (Perbio, Bonn, Germany). Beads used were 5.6 μm diameter streptavidin coated polystyrene particles (Bangs Laboratories, Illinois, USA).
pMHC used for positive and negative control stimulations were A*0201/MLA-001 (peptide […] (SEQ ID NO. 664) from modified Melan-A/MART-1) and A*0201/DDX5-001 ([…] from DDX5, SEQ ID NO. 665), respectively.
800.000 beads/200 μl were coated in 96-well plates in the presence of 4×12.5 ng different biotin-pMHC, washed and 600 ng biotin anti-CD28 were added subsequently in a volume of 200 μl. Stimulations were initiated in 96-well plates by co-incubating […] CD8+ T cells with 2×10^5 washed coated beads in 200 μl TCM supplemented with 5 ng/ml IL-12 (PromoCell) for 3 days at 37° C. Half of the medium was then exchanged by fresh TCM supplemented with 80 U/ml IL-2 and incubating was continued for 4 days at 37° C. This stimulation cycle was performed for a total of three times. For the pMHC multimer readout using 8 different pMHC molecules per condition, a two-dimensional combinatorial coding approach was used as previously described (Andersen et al., 2012) with minor modifications encompassing coupling to 5 different fluorochromes. Finally, multimeric analyses were performed by staining the cells with Live/dead near IR dye (Invitrogen, Karlsruhe, Germany), CD8-FITC antibody clone SK1 (BD, Heidelberg, Germany) and fluorescent pMHC multimers. For analysis, a BD LSRII SORP cytometer equipped with appropriate lasers and filters was used. Peptide specific cells were calculated as percentage of total CD8+ cells. Evaluation of multimeric analysis was done using the FlowJo software (Tree Star, Oreg., USA). In vitro priming of specific multimer+ CD8+ lymphocytes was detected by comparing to negative control stimulations.
Exemplary flow cytometry results after TUMAP-specific multimer staining for two peptides of the invention are shown in FIG. 3 together with corresponding negative controls.

Substance	Peptide exchange (MHC class I binding score, peptide exchange yield) (HLA-A*02:01)	Wells positive [%] (CD8+ T cells)	donors (positive donors, in vitro immunogenicity) (CD8+ T cells)	wells (positive wells, in vitro immunogenicity) (CD8+ T cells)
3 (SLASKLTTL; listed as Homo sapiens) [compound 3]	“++++” (≥75% = ++++)	“+” (<20% = +)	–	–
36 (YVLEDLEVTV; listed as Homo sapiens) [compound 36]	“++” (≥20% = ++)	“+” (<20% = +)	–	–
113 (GLLPTPLFGV; listed as Homo sapiens) [compound 113]	“+++” (≥50 = +++)	“+” (<20% = +)	–	–
118 (KLIDNNINV; listed as Homo sapiens) [compound 118]	“+++” (≥50 = +++)	“+” (<20% = +)	–	–
141 (YLDFSNNRL; listed as Homo sapiens) [compound 141]	“++” (≥20% = ++)	“+” (<20% = +)	–	–
283 (ALYIGDGYVIHLA; listed as Homo sapiens) [compound 283]	“+++” (≥50 = +++)	–	+++ (50%-69% = +++)	+ (<20% = +)
443 (GLWEIENNPTV; listed as Homo sapiens) [compound 443]	“+++” (≥50 = +++)	“+” (<20% = +)	–	–
499 (KIFDIDEAEEGV; listed as Homo sapiens) [compound 499]	“++” (≥20% = ++)	“+” (<20% = +)	–	–
511 (FLDPYCSASV; listed as Homo sapiens) [compound 511]	“++” (≥20% = ++)	“+” (<20% = +)	–	–
603 (FLIEPEHVNTV; listed as Homo sapiens) [compound 603]	“++” (≥20% = ++)	“+” (<20% = +)	–	–
648 (LLWGNAIFL; listed as Homo sapiens) [compound 648]	–	–	+++ (50%-69% = +++)	++ (20%-49% = ++)
652 (TLWYRAPEV; listed as Homo sapiens) [compound 652]	–	–	++++ (>=70% = ++++)	+++ (50%-69% = +++)
659 (ILFPDIIARA; listed as Homo sapiens) [compound 659]	–	–	+++ (50%-69% = +++)	+ (<20% = +)
662 (KIQEILTQV; listed as Homo sapiens) [compound 662]	–	–	+++ (50%-69% = +++)	+ (<20% = +)
663 (KIQEMQHFL; listed as Homo sapiens) [compound 663]	–	–	+++ (50%-69% = +++)	+ (<20% = +)

Further lines, with some results ahead:

Peptide exchange (MHC class I binding score, peptide exchange yield) (HLA-A*02:01)	Substance	Wells positive [%] (CD8+ T cells)	donors (positive donors, in vitro immunogenicity) (CD8+ T cells)	wells (positive wells, in vitro immunogenicity) (CD8+ T cells)
“+++” (≥50 = +++)	2 (SLLEADPFL; listed as Homo sapiens) [compound 2]	“+” (<20% = +)	–	–
“++++” (≥75% = ++++)	8 (FTLGNVVGMYL; listed as Homo sapiens) [compound 8]	“+” (<20% = +)	–	–
“+++” (≥50 = +++)	11 (KIFEMLEGV; listed as Homo sapiens) [compound 11]	“+” (<20% = +)	–	–
“+++” (≥50 = +++)	38 (FLLEDDIHVS; listed as Homo sapiens) [compound 38]	“+” (<20% = +)	–	–
“+++” (≥50 = +++)	48 (ALAELYEDEV; listed as Homo sapiens) [compound 48]	“+” (<20% = +)	–	–
“++++” (≥75% = ++++)	56 (KLYEGIPVLL; listed as Homo sapiens) [compound 56]	“+” (<20% = +)	–	–
“++++” (≥75% = ++++)	60 (SLTIDGIYYV; listed as Homo sapiens) [compound 60]	“++++” (>=70% = ++++)	–	–
“+++” (≥50 = +++)	79 (SLFIGEKAVLL; listed as Homo sapiens) [compound 79]	“+” (<20% = +)	–	–
“++++” (≥75% = ++++)	143 (LLLDITPEI; listed as Homo sapiens) [compound 143]	“+” (<20% = +)	–	–
“+++” (≥50 = +++)	150 (RLWEEGEELEL; listed as Homo sapiens) [compound 150]	“+” (<20% = +)	–	–
“+++” (≥50 = +++)	166 (YLNHLEPPV; listed as Homo sapiens) [compound 166]	“++++” (>=70% = ++++)	–	–
“+++” (≥50 = +++)	199 (ALQDVPLSSV; listed as Homo sapiens) [compound 199]	“+” (<20% = +)	–	–
“+++” (≥50 = +++)	247 (VLLPNDLLEKV; listed as Homo sapiens) [compound 247]	“+” (<20% = +)	–	–
“++” (≥20% = ++)	319 (SLEPQIQPV; listed as Homo sapiens) [compound 319]	“+” (<20% = +)	–	–
“+++” (≥50 = +++)	384 (ILFANPNIFV; listed as Homo sapiens) [compound 384]	“+” (<20% = +)	–	–
“++++” (≥75% = ++++)	460 (AMLEKNYKL; listed as Homo sapiens) [compound 460]	“+” (<20% = +)	–	–
“+++” (≥50 = +++)	489 (KMWEELPEVV; listed as Homo sapiens) [compound 489]	“+” (<20% = +)	–	–
